Test results from ChEMBL document CHEMBL3098024, “Synthesis, molecular modeling and biological evaluation of N-benzylidene-2-((5-(pyridin-4-yl)-1,3,4-oxadiazol-2-yl)thio)acetohydrazide derivatives as potential anticancer agents” (Bioorg Med Chem, 2014).

Experiments:
[1] = Cytotoxicity against human SW1116 cells after 48 hrs by MTT assay; type: functional, cell-based; conditions: SW 1116, 48 h
MCF7 = experiment: Cytotoxicity against human MCF7 cells after 48 hrs by MTT assay; type: functional, cell-based; conditions: MCF7, 48 h
HepG2 = experiment: Cytotoxicity against human HepG2 cells after 48 hrs by MTT assay; type: functional, cell-based; conditions: HepG2, 48 h
NIH3T3 = experiment: Cytotoxicity against mouse NIH/3T3 cells after 24 hrs by MTT assay; type: ADME, cell-based; conditions: NIH3T3, 24 h
[2] = Inhibition of telomerase in human SW1116 cells after 24 hrs by TRAP-PCR-ELISA assay; type: cell-based; conditions: sw 1116
[3] = Cytotoxicity against human BGC823 cells after 48 hrs by MTT assay; type: functional, cell-based; conditions: BGC-823, 48 h

O=C(CSc1nnc(-c2ccncc2)o1)N/N=C/c1ccc(O)c(O)c1
IC50 [1]: 1.54 µM
IC50 (MCF7): 0.91 µM
IC50 (HepG2): 0.76 µM
IC50 (NIH3T3): 154 µM
IC50 [2]: 1.18 µM
pIC50 [2]: 5.93
IC50 [3]: 1.26 µM

O=C(CSc1nnc(-c2ccncc2)o1)N/N=C/c1cc(Br)cc(Br)c1O
IC50 [1]: 8.57 µM
IC50 (MCF7): 9.01 µM
IC50 (HepG2): 6.54 µM
IC50 (NIH3T3): 190 µM
IC50 [2]: 7.12 µM
pIC50 [2]: 5.15
IC50 [3]: 9.61 µM

NNC(=O)CSc1nnc(-c2ccncc2)o1
IC50 [1]: 3.26 µM
IC50 (MCF7): 3.26 µM
IC50 (HepG2): 3.26 µM
IC50 [3]: 3.26 µM

O=C(CSc1nnc(-c2ccncc2)o1)N/N=C/c1cc(Cl)ccc1O
IC50 [1]: 5.24 µM
IC50 (MCF7): 5.83 µM
IC50 (HepG2): 3.97 µM
IC50 (NIH3T3): 166 µM
IC50 [2]: 3.13 µM
pIC50 [2]: 5.5
IC50 [3]: 5.47 µM

O=C(CSc1nnc(-c2ccncc2)o1)N/N=C/c1ccccc1[N+](=O)[O-]
IC50 [1]: 30.7 µM
IC50 (MCF7): 35.6 µM
IC50 (HepG2): 24.7 µM
IC50 (NIH3T3): 214 µM
IC50 [2]: 18.2 µM
pIC50 [2]: 4.74
IC50 [3]: 41.6 µM

O=C(CSc1nnc(-c2ccncc2)o1)N/N=C/c1ccccc1
IC50 [1]: 16.7 µM
IC50 (MCF7): 14.6 µM
IC50 (HepG2): 17.3 µM
IC50 (NIH3T3): 167 µM
IC50 [2]: 9.72 µM
pIC50 [2]: 5.01
IC50 [3]: 22.1 µM

COc1cc(/C=N/NC(=O)CSc2nnc(-c3ccncc3)o2)ccc1O
IC50 [1]: 3.59 µM
IC50 (MCF7): 3.78 µM
IC50 (HepG2): 2.92 µM
IC50 (NIH3T3): 148 µM
IC50 [2]: 2.89 µM
pIC50 [2]: 5.54
IC50 [3]: 4.32 µM

O=C(CSc1nnc(-c2ccncc2)o1)N/N=C/c1ccc(Br)cc1
IC50 [1]: 21.3 µM
IC50 (MCF7): 19.1 µM
IC50 (HepG2): 18.6 µM
IC50 (NIH3T3): 169 µM
IC50 [2]: 12.4 µM
pIC50 [2]: 4.91
IC50 [3]: 24.5 µM

O=C(CSc1nnc(-c2ccncc2)o1)N/N=C/c1cccs1
IC50 [1]: 24.9 µM
IC50 (MCF7): 23.5 µM
IC50 (HepG2): 14.9 µM
IC50 (NIH3T3): 189 µM
IC50 [2]: 13.5 µM
pIC50 [2]: 4.87
IC50 [3]: 26.7 µM

Cc1ccc(/C=N/NC(=O)CSc2nnc(-c3ccncc3)o2)cc1
IC50 [1]: 16.8 µM
IC50 (MCF7): 14.7 µM
IC50 (HepG2): 10 µM
IC50 (NIH3T3): 185 µM
IC50 [2]: 8.51 µM
pIC50 [2]: 5.07
IC50 [3]: 21.8 µM

CC[n+]1c(-c2ccccc2)c2cc(N)ccc2c2ccc(N)cc21 [HOMIDIUM BROMIDE]
IC50 (NIH3T3): 135 µM
IC50 [2]: 2.71 µM

O=C(CSc1nnc(-c2ccncc2)o1)N/N=C/c1ccc(O)cc1
IC50 [1]: 12.2 µM
IC50 (MCF7): 11.7 µM
IC50 (HepG2): 5.51 µM
IC50 (NIH3T3): 158 µM
IC50 [2]: 5.36 µM
pIC50 [2]: 5.27
IC50 [3]: 7.94 µM

O=C(CSc1nnc(-c2ccncc2)o1)N/N=C/c1ccccc1F
IC50 [1]: 21.5 µM
IC50 (MCF7): 21.8 µM
IC50 (HepG2): 16 µM
IC50 (NIH3T3): 142 µM
IC50 [2]: 14.6 µM
pIC50 [2]: 4.84
IC50 [3]: 24 µM

O=C(CSc1nnc(-c2ccncc2)o1)N/N=C/c1cc(Br)ccc1O
IC50 [1]: 8.15 µM
IC50 (MCF7): 7.77 µM
IC50 (HepG2): 6.49 µM
IC50 (NIH3T3): 156 µM
IC50 [2]: 4.28 µM
pIC50 [2]: 5.37
IC50 [3]: 9.59 µM

O=C(CSc1nnc(-c2ccncc2)o1)N/N=C/c1ccco1
IC50 [1]: 18.8 µM
IC50 (MCF7): 16.6 µM
IC50 (HepG2): 12.5 µM
IC50 (NIH3T3): 175 µM
IC50 [2]: 9.63 µM
pIC50 [2]: 5.02
IC50 [3]: 25.8 µM

O=C(CSc1nnc(-c2ccncc2)o1)N/N=C/c1ccc(Cl)cc1
IC50 [1]: 17 µM
IC50 (MCF7): 15.3 µM
IC50 (HepG2): 15.7 µM
IC50 (NIH3T3): 181 µM
IC50 [2]: 11.9 µM
pIC50 [2]: 4.93
IC50 [3]: 20.5 µM

O=C(CSc1nnc(-c2ccncc2)o1)N/N=C/c1ccc([N+](=O)[O-])cc1
IC50 [1]: 25.8 µM
IC50 (MCF7): 31.8 µM
IC50 (HepG2): 17.9 µM
IC50 (NIH3T3): 195 µM
IC50 [2]: 16.7 µM
pIC50 [2]: 4.78
IC50 [3]: 31.5 µM

COc1cccc(/C=N/NC(=O)CSc2nnc(-c3ccncc3)o2)c1
IC50 [1]: 16.5 µM
IC50 (MCF7): 13.8 µM
IC50 (HepG2): 9.17 µM
IC50 (NIH3T3): 179 µM
IC50 [2]: 7.54 µM
pIC50 [2]: 5.12
IC50 [3]: 15.8 µM

O=C(CSc1nnc(-c2ccncc2)o1)N/N=C/c1cc(Cl)cc(Cl)c1O
IC50 [1]: 5.03 µM
IC50 (MCF7): 5.92 µM
IC50 (HepG2): 3.26 µM
IC50 (NIH3T3): 171 µM
IC50 [2]: 4.8 µM
pIC50 [2]: 5.32
IC50 [3]: 6.34 µM

O=C(CSc1nnc(-c2ccncc2)o1)N/N=C/c1cccc(C(F)(F)F)c1
IC50 [1]: 14.9 µM
IC50 (MCF7): 14.6 µM
IC50 (HepG2): 6.52 µM
IC50 (NIH3T3): 169 µM
IC50 [2]: 5.18 µM
pIC50 [2]: 5.29
IC50 [3]: 13 µM

O=C(CSc1nnc(-c2ccncc2)o1)N/N=C/c1ccc(Cl)cc1Cl
IC50 [1]: 28.9 µM
IC50 (MCF7): 27.9 µM
IC50 (HepG2): 18.6 µM
IC50 (NIH3T3): 221 µM
IC50 [2]: 17.8 µM
pIC50 [2]: 4.75
IC50 [3]: 35.6 µM

O=C(CSc1nnc(-c2ccncc2)o1)N/N=C/c1ccc(F)cc1
IC50 [1]: 15.7 µM
IC50 (MCF7): 13.5 µM
IC50 (HepG2): 12.3 µM
IC50 (NIH3T3): 170 µM
IC50 [2]: 10.2 µM
pIC50 [2]: 4.99
IC50 [3]: 17.8 µM

O=c1[nH]cc(F)c(=O)[nH]1 [FLUOROURACIL]
IC50 [1]: 5.26 µM
IC50 (MCF7): 9.79 µM
IC50 (HepG2): 7.43 µM
IC50 [3]: 7.48 µM

O=C(CSc1nnc(-c2ccncc2)o1)N/N=C/c1cccc(F)c1
IC50 [1]: 26.7 µM
IC50 (MCF7): 24.9 µM
IC50 (HepG2): 19.4 µM
IC50 (NIH3T3): 205 µM
IC50 [2]: 15.7 µM
pIC50 [2]: 4.8
IC50 [3]: 27.5 µM

O=C(CSc1nnc(-c2ccncc2)o1)N/N=C/c1ccccc1O
IC50 [1]: 7.38 µM
IC50 (MCF7): 4.75 µM
IC50 (HepG2): 3.51 µM
IC50 (NIH3T3): 155 µM
IC50 [2]: 3.97 µM
pIC50 [2]: 5.4
IC50 [3]: 6.16 µM

O=C(CSc1nnc(-c2ccncc2)o1)N/N=C/C=C/c1ccccc1
IC50 [1]: 14.9 µM
IC50 (MCF7): 10.8 µM
IC50 (HepG2): 7.42 µM
IC50 (NIH3T3): 160 µM
IC50 [2]: 6.57 µM
pIC50 [2]: 5.18
IC50 [3]: 10.6 µM

COc1ccc(/C=N/NC(=O)CSc2nnc(-c3ccncc3)o2)cc1
IC50 [1]: 20.3 µM
IC50 (MCF7): 17.6 µM
IC50 (HepG2): 15.8 µM
IC50 (NIH3T3): 132 µM
IC50 [2]: 9.04 µM
pIC50 [2]: 5.04
IC50 [3]: 19.8 µM
